Assay results taken from patent US20230135894A1, “MK2 DEGRADERS AND USES THEREOF” (Kymera Therapeutics, Inc., priority 2021, published 2023).

Experiments:
MK2 [1] = molecular target: T1, MK2 (Homo sapiens, UniProt P49137); assay: MK2 degradation in human THP-1 monocytic cells (MSD, 24 h); format: cell-based; parameters: endogenous in cells; key to MK2 MSD THP-1 degradation 24 h GMean External Abs DC50: A (<0.001 μM); B (0.001-0.01 μM); C (0.01-0.1 μM); D (>0.1 μM); —: “-”=not tested or inactive; conditions: for Dmax: THP-1, THP-1 cells; for MK2 MSD THP-1 degradation 24 h GMean External Abs DC50 / DC50: THP-1 cells; for DC50: read-out: MK2 MSD THP-1 degradation 24 h GMean External Abs DC50
Procedure, shortened: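 THP-1 cells (200,000/well) treated 24 h at 37 °C with compound dilution series (up to 10 points, 0.1% DMSO). MK2 in RIPA lysates quantified by MSD sandwich immunoassay. DC50 from 4-parameter logistic fit, DMSO-treated cells as high and lysis buffer as low signal.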

MK2 [2] = molecular target: T1, MK2; assay: MK2 degradation in human SW1353 cells (MSD, 24 h); format: cell-based; parameters: endogenous in cells; host or cells: SW-1353 (ATCC HTB-94); key to MK2 MSD SW1353 degradation 24 h GMean External Abs DC50: A (<0.001 μM); B (0.001-0.01 μM); C (0.01-0.1 μM); D (>0.1 μM); —: “-”=not tested or inactive; key to MK2 MSD SW 1353 24 h Dmax %: —: “-”=not tested or inactive; conditions: for Dmax: read-out: MK2 MSD SW 1353 24 h Dmax %; for DC50: read-out: MK2 MSD SW1353 degradation 24 h GMean External Abs DC50
Procedure, shortened: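 SW1353 chondrosarcoma cells were treated with up to 10-point serial dilutions (0.1% DMSO) for 24 h at 37 °C, then lysed in RIPA buffer. MK2 levels were quantified by MSD sandwich immunoassay; DC50 came from a 4-parameter logistic fit normalised to DMSO-treated cells (high) and lysis buffer (low).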

T1 sequence (P49137 whole entry): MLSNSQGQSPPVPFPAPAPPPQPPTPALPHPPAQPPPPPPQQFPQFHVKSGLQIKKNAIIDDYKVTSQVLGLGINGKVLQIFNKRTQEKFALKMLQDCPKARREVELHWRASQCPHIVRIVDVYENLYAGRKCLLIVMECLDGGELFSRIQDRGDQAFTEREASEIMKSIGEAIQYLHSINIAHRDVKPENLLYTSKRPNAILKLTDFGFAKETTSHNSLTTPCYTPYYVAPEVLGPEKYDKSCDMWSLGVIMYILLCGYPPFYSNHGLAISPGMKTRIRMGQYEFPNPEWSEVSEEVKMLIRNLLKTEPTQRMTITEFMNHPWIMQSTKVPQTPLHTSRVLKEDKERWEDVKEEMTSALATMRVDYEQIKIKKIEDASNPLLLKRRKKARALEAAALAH

Dmax (MK2 [1])	MK2 MSD THP-1 degradation 24 h GMean External Abs DC50 (MK2 [1])	MK2 MSD SW1353 degradation 24 h GMean External Abs DC50 (MK2 [2])	Dmax (MK2 [2])	DC50 (MK2 [1])	DC50 (MK2 [2])	MK2 MSD SW 1353 24 h Dmax % (MK2 [2])	Compound
> 75%		—		10 to 100 nM		—	O=C1CCN(c2cncc3c(N4CC(CN5CCN(c6ccc(-c7cc(-c8cc9c([nH]8)CCNC9=O)ccn7)cc6)CC5)C4)cccc23)C(=O)N1 [Compound I-197]
> 75%		—		10 to 100 nM		—	O=C1CCN(c2cncc3c(N4CCN(CC5CCN(c6ccc(-c7cc(-c8cc9c([nH]8)CCNC9=O)ccn7)cc6)CC5)CC4)cccc23)C(=O)N1 [Compound I-198]
> 75%		—	> 75%	1 to 10 nM			Cn1c(=O)n(C2CCC(=O)NC2=O)c2cccc(CCCN3CCN(c4ccc(-c5cc(-c6cc7c([nH]6)C6(CC6)CNC7=O)ccn5)cn4)CC3)c21 (stereo not drawn) [Compound I-199]
> 75%		—	> 75%	1 to 10 nM			Cn1c(=O)n(C2CCC(=O)NC2=O)c2cccc(CCN3CCN(c4ccc(-c5cc(-c6cc7c([nH]6)C6(CC6)CNC7=O)ccn5)cn4)CC3)c21 (stereo not drawn) [Compound I-200]
< 50%		—		> 100 nM		—	Cn1c(=O)n(C2CCC(=O)NC2=O)c2ccc(CCN3CCN(c4ccc(-c5cc(-c6cc7c([nH]6)C6(CC6)CNC7=O)ccn5)cn4)CC3)cc21 (stereo not drawn) [Compound I-201]
< 50%		—		> 100 nM		—	Cn1c(=O)n(C2CCC(=O)NC2=O)c2ccc(CCN3CCN(c4ccc(-c5cc(-c6cc7c([nH]6)C6(CC6)CNC7=O)ccn5)cc4)CC3)cc21 (stereo not drawn) [Compound I-202]
> 75%		—	> 75%	1 to 10 nM			Cn1c(=O)n(C2CCC(=O)NC2=O)c2cccc(CCN3CCN(c4ccc(-c5cc(-c6cc7c([nH]6)C6(CC6)CNC7=O)ccn5)cc4)CC3)c21 (stereo not drawn) [Compound I-203]
> 75%		—		1 to 10 nM		—	Cn1c(=O)n(C2CCC(=O)NC2=O)c2cccc(CCCN3CCN(c4ccc(-c5cc(-c6cc7c([nH]6)C6(CCC6)CNC7=O)ccn5)cc4)CC3)c21 (stereo not drawn) [Compound I-204]
> 75%		—		< 1 nM		—	Cn1c(=O)n(C2CCC(=O)NC2=O)c2ccc(N3CCC(CN4CCN(c5ccc(-c6cc(-c7cc8c([nH]7)C7(CCC7)CNC8=O)ccn6)cc5)CC4)CC3)cc21 (stereo not drawn) [Compound I-205]
50 to 75%		—		1 to 10 nM		—	Cn1c(=O)n(C2CCC(=O)NC2=O)c2ccc(N3CCC(CN4CCN(c5cc(-c6ccc7cc[nH]c7c6)cc(-c6cc(-c7cc8c([nH]7)CCNC8=O)ccn6)c5)CC4)CC3)cc21 (stereo not drawn) [Compound I-206]
50 to 75%		—	> 75%	1 to 10 nM			Cc1cc(-c2cc(-c3cc4c([nH]3)CCNC4=O)ccn2)cc(C)c1N1CCN(CC2CCN(c3ccc4c(c3)n(C)c(=O)n4C3CCC(=O)NC3=O)CC2)CC1 (stereo not drawn) [Compound I-207]
< 50%			< 50%	> 100 nM	> 100 nM		C[C@@H]1Cc2oc(-c3ccnc(-c4ccc(N5CCN(CC6CCN(c7ccc8c(c7)n(C)c(=O)n8C7CCC(=O)NC7=O)CC6)CC5)cc4)c3)cc2C(=O)N1 (stereo partly drawn) [Compound I-208]
< 50%		—	< 50%	> 100 nM			C[C@@H]1Cc2oc(-c3ccnc(-c4ccc(N5CCN(CC6CCN(c7ccc8c(c7)n(C)c(=O)n8C7CCC(=O)NC7=O)CC6)CC5)nc4)c3)cc2C(=O)N1 (stereo partly drawn) [Compound I-209]
50 to 75%			> 75%	10 to 100 nM	10 to 100 nM		O=C1CCN(c2cncc3c(N4CCC(CN5CCN(c6ccc(-c7cc(-c8cc9c([nH]8)CCNC9=O)ccn7)cc6)CC5)CC4)cccc23)C(=O)N1 [Compound I-210]
50 to 75%			> 75%	10 to 100 nM	10 to 100 nM		O=C1CCN(c2cncc3c(N4CCC(CN5CCN(c6ccc(-c7cc(-c8cc9c([nH]8)C8(CC8)CNC9=O)ccn7)cc6)CC5)CC4)cccc23)C(=O)N1 [Compound I-211]
> 75%			> 75%	10 to 100 nM	10 to 100 nM		O=C1CCN(c2cncc3c(N4CCN(CC5CCN(c6ccc(-c7cc(-c8cc9c([nH]8)C8(CC8)CNC9=O)ccn7)cc6)CC5)CC4)cccc23)C(=O)N1 [Compound I-212]

The next lines start with the molecule.

Compound	Dmax (MK2 [1])	MK2 MSD THP-1 degradation 24 h GMean External Abs DC50 (MK2 [1])	MK2 MSD SW1353 degradation 24 h GMean External Abs DC50 (MK2 [2])	Dmax (MK2 [2])	DC50 (MK2 [1])	DC50 (MK2 [2])	MK2 MSD SW 1353 24 h Dmax % (MK2 [2])
C[C@@H]1CNc2c(sc3ccc4nc(-c5ccc(N6CCN(CCCCOc7ccc(C8CCC(=O)NC8=O)cc7)CC6)nc5)ccc4c23)C(=O)N1 (stereo partly drawn) [Compound I-183]	> 75%	—	—	> 75%			
C[C@@H]1CNc2c(sc3ccc4nc(N5CCN(CC6CCN(c7ccc(-c8ccc9c(c8)n(C)c(=O)n9C8CCC(=O)NC8=O)cc7)CC6)CC5)ccc4c23)C(=O)N1 (stereo partly drawn) [Compound I-184]	> 75%	—	—	> 75%			
C[C@@H]1CNc2c(sc3ccc4nc(N5CCC6(CC5)CC(N5CCN(c7ccc8c(c7)n(C)c(=O)n8C7CCC(=O)NC7=O)CC5)C6)ccc4c23)C(=O)N1 (stereo partly drawn) [Compound I-185]	> 75%	—	—	> 75%			
C#Cc1cc(-c2ccc3c(ccc4sc5c(c43)NC[C@@H](C)NC5=O)n2)cc(N2CCN(CC3CCN(c4ccc5c(c4)n(C)c(=O)n5C4CCC(=O)NC4=O)CC3)CC2)c1 (stereo partly drawn) [Compound I-186]	> 75%	—	—	> 75%			
C[C@@H]1CNc2c(sc3ccc4nc(N5C[C@@H]6C[C@H]5CN6CC5CCN(c6cccc7c6n(C)c(=O)n7C6CCC(=O)NC6=O)CC5)ccc4c23)C(=O)N1 (stereo partly drawn) [Compound I-187]	< 50%			< 50%	> 100 nM	> 100 nM	
O=C1CCN(c2cncc3c(N4CC(CN5CCN(c6ccc(-c7cc(-c8cc9c([nH]8)C8(CC8)CNC9=O)ccn7)cc6)CC5)C4)cccc23)C(=O)N1 [Compound I-188]	> 75%			> 75%	1 to 10 nM	1 to 10 nM	
Cn1c(=O)n(C2CCC(=O)NC2=O)c2ccc(N3CC(CN4CCN(c5ccc(-c6cc(-c7cc8c([nH]7)C7(CC7)CNC8=O)ccn6)cc5)CC4)C3)cc21 (stereo not drawn) [Compound I-189]	> 75%			> 75%	< 1 nM	< 1 nM	
Cn1c(=O)n(C2CCC(=O)NC2=O)c2cccc(N3CC(CN4CCN(c5ccc(-c6cc(-c7cc8c([nH]7)C7(CC7)CNC8=O)ccn6)cc5)CC4)C3)c21 (stereo not drawn) [Compound I-190]	> 75%			> 75%	< 1 nM	< 1 nM	
Cn1c(=O)n(C2CCC(=O)NC2=O)c2cccc(CCCN3CCN(c4ccc(-c5cc(-c6cc7c([nH]6)C6(CCCC6)CNC7=O)ccn5)cc4)CC3)c21 (stereo not drawn) [Compound I-191]	50 to 75%			> 75%	10 to 100 nM	1 to 10 nM	
Cn1c(=O)n(C2CCC(=O)NC2=O)c2ccc(N3CCC(CN4CCN(c5ccc(-c6cc(-c7cc8c([nH]7)C7(CCCC7)CNC8=O)ccn6)cc5)CC4)CC3)cc21 (stereo not drawn) [Compound I-192]	> 75%			> 75%	< 1 nM	< 1 nM	
Cn1c(=O)n(C2CCC(=O)NC2=O)c2ccc(N3CCC(CN4CCN(c5cc(-c6cc(-c7cc8c([nH]7)CCNC8=O)ccn6)cc(C6CCCC6)c5)CC4)CC3)cc21 (stereo not drawn) [Compound I-193]	< 50%				> 100 nM	> 100 nM	—
Cc1cc(-c2cc(-c3cc4c([nH]3)C3(CC3)CNC4=O)ccn2)cc(C)c1N1CCN(CC2CCN(c3ccc4c(c3)n(C)c(=O)n4C3CCC(=O)NC3=O)CC2)CC1 (stereo not drawn) [Compound I-194]	> 75%			> 75%	< 1 nM	< 1 nM	
C[C@@H]1CNc2c(sc3ccc4nc(-c5ccc(N6CCN(C[C@H]7CCN(c8ccc9c(c8)n(C)c(=O)n9C8CCC(=O)NC8=O)C7)CC6)cc5)ccc4c23)C(=O)N1 (stereo partly drawn) [Compound I-195]	> 75%			> 75%	< 1 nM	< 1 nM	
C[C@@H]1CNc2c(sc3ccc4nc(N5CCN(CC6CCN(c7cccc8c7n(C)c(=O)n8C7CCC(=O)NC7=O)CC6)CC5)ccc4c23)C(=O)N1 (stereo partly drawn) [Compound I-196]	> 75%		—		1 to 10 nM		—
